We go through two molecules from PMC6524645 (Cell, 2018).

In data set [1] the target is P. syringae SelO (Pseudomonas syringae group genomosp. 3, UniProt Q87VB1). Kind of data set: X-ray crystal structure, […] Å. The format is binding. To be noted: active site, nucleotide flipped; Mg2+ and Ca2+ bound; pH 8; 20 °C.
Data set [2] concerns the molecule itself. Kind of data set: non-reducing SDS-PAGE.

P. syringae SelO, sequence (Q87VB1 whole entry): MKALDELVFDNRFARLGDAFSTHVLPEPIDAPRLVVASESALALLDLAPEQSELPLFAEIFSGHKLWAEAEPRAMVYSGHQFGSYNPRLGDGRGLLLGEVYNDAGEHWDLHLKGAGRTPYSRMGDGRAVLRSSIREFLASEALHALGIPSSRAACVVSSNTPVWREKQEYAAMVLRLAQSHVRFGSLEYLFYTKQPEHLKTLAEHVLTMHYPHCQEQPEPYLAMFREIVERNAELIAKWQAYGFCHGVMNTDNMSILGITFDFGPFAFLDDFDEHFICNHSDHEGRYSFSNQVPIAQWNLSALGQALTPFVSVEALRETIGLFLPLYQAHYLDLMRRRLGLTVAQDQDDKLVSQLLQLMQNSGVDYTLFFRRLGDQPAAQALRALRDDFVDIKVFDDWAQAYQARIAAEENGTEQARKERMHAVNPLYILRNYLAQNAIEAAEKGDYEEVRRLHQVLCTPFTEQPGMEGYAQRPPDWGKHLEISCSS

Regarding `Nc1ncnc2c1ncn2[C@@H]1O[C@H](COP(=O)(O)OP(=O)(O)NP(=O)(O)O)[C@@H](O)[C@H]1O` [AMP-PNP], the “X-ray crystal structure, 2.27 Å” value in data set [1] is given as “bound to an ATP derivative AMP-PNP”.

B1: E. coli SelO (ydiU) C272A mutant (enzyme, UniProt P77649 1-478, looked up)
chain: MTLSFVTRWRDELPETYTALSPTPLNNARLIWHNTELANTLSIPSSLFKNGAGVWGGEALLPGMSPLAQVYSGHQFGVWAGQLGDGRGILLGEQLLADGTTMDWHLKGAGLTPYSRMGDGRAVLRSTIRESLASEAMHYLGIPTTRALSIVTSDSPVYRETAEPGAMLMRVAPSHLRFGHFEHFYYRRESEKVRQLADFAIRHYWSHLADDEDKYRLWFSDVVARTASLIAQWQTVGFAHGVMNTDNMSLLGLTLDYGPFGFLDDYEPGFIANHSDHQGRYSFDNQPAVALWNLQRLAQTLSPFVAVDALNEALDSYQQVLLTHYGERMRQKLGFMTEQKEDNALLNELFSLMARERSDYTRTFRMLSLTEQHSAASPLRDEFIDRAAFDDWFARYRGRLQQDEVSDSERQQLMQSVNPALVLRNWLAQRAIEAAEKGDMTELHRLHEALRNPFSDRDDDYVSRPPDWGKRLEVSCSS
modifications: intermolecular disulfide between the two copies (cysteine not named)
Broadly, the stoichiometry N is the number of molecules, sites or subunits per partner or assembly. Turning to B1, the “stoichiometry N” value in data set [2] is 2.
